According to patent US7378447B2, “Muscarinic agonists” (Eli Lilly and Company, priority 2003, dated 2008):
Where two headings read alike, the source gives them in different places.

Test system: Male Sprague-Dawley rats
Settings: six-hour delay

Nc1c2c(nc3ccccc13)CCCC2 [Tacrine, tacrine]
retention (errors in retention session) (tacrine 3 mg/kg s.c. immediately after the sampling phase): not
retention (errors in retention session) (tacrine 10 mg/kg s.c. immediately after the sampling phase): significantly improved retention
